Assays:
[1] = molecular target: recombinant RORγ Ligand Binding Domain (LBD) protein (Homo sapiens (Human), UniProt P51449); assay: Radio-Ligand RORγ Binding Assay (Assay 1); settings: competition with 25-hydroxy [26,27-3H]-cholesterol, SPA; read-out: RORγ Binding Ki Range (nM) (Assay 1)
Description: Radio-Ligand RORγ Binding Assay (Assay 1)
Compounds of the present invention were tested for ability to bind to RORγ in a cell-free competition assay with commercially available radio-ligand (RL), 25-hydroxy [26,27-^3H]-cholesterol (PerkinElmer, Cat. # NET674250UC), for a ligand binding site on a recombinant RORγ Ligand Binding Domain (LBD) protein expressed as a 6×His-Glutathione-S-Transferase (GST) fusion. […] The plate was shaken at 700 rpm for 20 min and incubated for 10 min at rt, after which 40 μL of poly-Lys YSi SPA beads (PerkinElmer, Cat. # RPNQ0010) were added to achieve 50 μg of the beads per well. The plate was incubated on an orbital shaker for 20 min and then for 10 min without agitation at rt. SPA signal for tritium beta radiation was registered on PerkinElmer Microbeta plate reader. […] The percent inhibition vs. concentration data were fit into a four-parameter model, and IC50 values were calculated from the fit as the concentrations corresponding to the inflection points on the dose-response curves.

[2] = molecular target: full-length RORγt in Jurkat cells (Homo sapiens (Human), UniProt P51449); assay: RORγt 5×RORE Assay in Jurkat Cells (Assay 2); format: cell-based; settings: 5×RORE Nanoluc luciferase reporter, read-out: RORγt5X IC50 Range (nM) (Assay 2)
full-length RORγt in Jurkat cells, sequence (P51449 other isoform, or with tags, fused parts or gaps): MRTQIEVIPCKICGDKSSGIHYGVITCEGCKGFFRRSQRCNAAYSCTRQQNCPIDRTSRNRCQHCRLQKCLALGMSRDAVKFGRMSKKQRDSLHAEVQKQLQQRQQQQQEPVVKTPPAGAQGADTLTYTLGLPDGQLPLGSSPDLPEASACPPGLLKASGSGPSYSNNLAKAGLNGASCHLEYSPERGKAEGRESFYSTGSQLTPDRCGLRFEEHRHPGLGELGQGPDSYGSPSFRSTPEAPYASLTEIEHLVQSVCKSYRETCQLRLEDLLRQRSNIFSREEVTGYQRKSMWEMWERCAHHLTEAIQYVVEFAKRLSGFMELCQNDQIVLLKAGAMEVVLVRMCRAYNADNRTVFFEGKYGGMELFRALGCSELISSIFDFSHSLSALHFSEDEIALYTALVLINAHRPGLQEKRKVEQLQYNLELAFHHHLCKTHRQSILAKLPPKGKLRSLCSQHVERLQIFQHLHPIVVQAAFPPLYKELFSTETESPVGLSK
Description: [formula] RORγt 5×RORE Assay in Jurkat Cells (Assay 2)
Compounds of the present invention were tested for RORγ inverse agonist activity in a cell-based, transcriptional activity assay. […] (Promega, Cat. # N1021) using KpnI and HindIII restriction sites. […] Tested compounds were added to the cells in the same media (final concentration of DMSO was 0.1% (v/v)), and the plates were incubated at 37° C./5% CO2 for 16-18 hr. Luciferase activity in the conditioned supernatants was determined with NanoGlo® assay reagents (Promega, Cat.# N1130).

[3] = system: IL-17A production in human whole blood; assay: Human Whole Blood Assay (Assay 3); format: cell-based; settings: IL-17A secretion, CytoStim activation, 48 h, 50% blood/media
Description: Human Whole Blood Assay (Assay 3)
Compounds of the invention were tested in the human whole blood assay to measure their effects on IL-17A production as determined by cytokine secretion into 50% blood/media supernatant. Mixtures of sodium heparinized whole blood (isolated from healthy human donors) and the T cell activator CytoStim, in the presence or absence of compound, were plated in sterilized, tissue culture-treated 24-well plates. […]
Mixtures were incubated at 37° C./5% CO2 for 48 h, after which, 200 μL of clean supernatant (i.e., no red blood cells) from each well was transferred to a well in a 96-well plate. IL-17A cytokine expression was determined using 25 μL of the transferred supernatant diluted with 25 μL of Diluent 43 from the Human IL-17A V-PLEX™ kit (cat. # K151RFD-4, Meso Scale Discovery, Rockville, Md.). […] The IL-17A V-PLEX™ plates were read using the Meso Scale Discovery Imager (Model 1200). The levels of IL-17A were extrapolated from a standard curve using a four-parameter non-linear fitting model and expressed as pg/mL. […]

[4] = molecular target: hERG potassium ion channel (Homo sapiens (Human), UniProt Q12809); assay: hERG Assay (Assay 4); format: cell-based; settings: HEK293 cells stably transfected with hERG cDNA, pH 7.4, compound at 3 μM, patch clamp, HEK 293 cells transfected with hERG
hERG potassium ion channel, sequence (Q12809 whole entry): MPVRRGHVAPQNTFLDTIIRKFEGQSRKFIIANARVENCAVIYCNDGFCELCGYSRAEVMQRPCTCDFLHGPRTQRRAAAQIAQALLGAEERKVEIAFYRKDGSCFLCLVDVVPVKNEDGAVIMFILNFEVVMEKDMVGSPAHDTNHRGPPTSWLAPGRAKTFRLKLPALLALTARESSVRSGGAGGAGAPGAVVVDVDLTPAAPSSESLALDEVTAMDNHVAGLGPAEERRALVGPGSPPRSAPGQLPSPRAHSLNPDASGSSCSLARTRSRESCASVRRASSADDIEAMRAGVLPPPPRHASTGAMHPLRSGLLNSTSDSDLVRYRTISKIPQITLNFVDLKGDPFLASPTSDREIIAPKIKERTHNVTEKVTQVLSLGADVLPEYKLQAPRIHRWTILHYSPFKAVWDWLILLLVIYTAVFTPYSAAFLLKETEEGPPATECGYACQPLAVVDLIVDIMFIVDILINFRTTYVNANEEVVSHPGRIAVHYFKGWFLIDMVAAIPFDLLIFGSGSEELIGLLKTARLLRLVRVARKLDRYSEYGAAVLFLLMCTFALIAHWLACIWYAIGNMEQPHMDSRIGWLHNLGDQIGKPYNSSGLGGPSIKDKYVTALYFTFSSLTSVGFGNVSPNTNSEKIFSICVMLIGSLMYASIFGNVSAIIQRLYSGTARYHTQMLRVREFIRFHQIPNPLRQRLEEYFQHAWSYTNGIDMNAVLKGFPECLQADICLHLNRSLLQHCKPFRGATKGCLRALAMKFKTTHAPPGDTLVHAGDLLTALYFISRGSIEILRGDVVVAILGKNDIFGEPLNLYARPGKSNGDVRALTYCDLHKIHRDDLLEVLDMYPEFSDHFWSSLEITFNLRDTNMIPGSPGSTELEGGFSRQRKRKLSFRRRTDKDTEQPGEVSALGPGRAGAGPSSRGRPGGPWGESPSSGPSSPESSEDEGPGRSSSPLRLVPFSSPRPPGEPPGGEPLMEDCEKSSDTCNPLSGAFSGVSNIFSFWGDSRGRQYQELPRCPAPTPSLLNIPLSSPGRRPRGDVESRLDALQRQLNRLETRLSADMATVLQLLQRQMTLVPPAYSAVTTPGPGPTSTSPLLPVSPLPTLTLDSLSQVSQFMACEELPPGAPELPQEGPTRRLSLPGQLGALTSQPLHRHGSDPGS
Description: Compounds of the invention were tested in vitro against the hERG (human ether-à-go-go-related gene) potassium ion channel (a surrogate for IKr, the rapidly activating delayed rectifier cardiac potassium ion channel).
The buffer was HEPES-buffered physiological saline (HB-PS) solution composed of: 137 mM NaCl, 4.0 mM KCl, 1.8 mM CaCl2, 1 mM MgCl2, 10 mM HEPES, 10 mM glucose, pH adjusted to 7.4 with NaOH, and 0.3% DMSO. Chemicals used in solution preparation were purchased from Sigma-Aldrich (St. Louis, Mo.), unless otherwise noted, and were of ACS reagent grade purity or higher.
HEK (human embryonic kidney) 293 cells were stably transfected with hERG cDNA.
For the patch clamp experiment, onset and steady state inhibition of hERG potassium current was measured using a pulse pattern with fixed amplitudes (depolarization: +20 mV for 2 s; repolarization: −50 mV for 2 s) repeated at 10 s intervals from a holding potential of −80 mV. Peak tail current was measured during the 2 s step to −50 mV. A steady state was maintained for at least 30 seconds before applying compound or positive control (cisapride). Peak tail currents were measured until a new steady state was achieved.
Data acquisition and analyses were performed using the suite of pCLAMP® (ver. 8.2) programs (MDS Analytical Technologies, Sunnyvale, Calif.). Steady state was defined by the limiting constant rate of change with time (linear time dependence). The steady state before and after each compound application was used to calculate the percentage of current inhibited at each concentration.
Concentration-response data were fit to an equation of the following form: % Inhibition={1−1/[1+([Test]/IC50)N]}*100
where [Test] was the compound concentration, IC50 was the compound concentration at half-maximal inhibition, N was the Hill coefficient, and % Inhibition was the percentage of current inhibited at each compound concentration. Nonlinear least squares fits were solved with the Solver add-in for Excel 2003 (Microsoft, WA) and the IC50 was calculated.

recombinant RORγ Ligand Binding Domain (LBD) protein, sequence (P51449 269-508): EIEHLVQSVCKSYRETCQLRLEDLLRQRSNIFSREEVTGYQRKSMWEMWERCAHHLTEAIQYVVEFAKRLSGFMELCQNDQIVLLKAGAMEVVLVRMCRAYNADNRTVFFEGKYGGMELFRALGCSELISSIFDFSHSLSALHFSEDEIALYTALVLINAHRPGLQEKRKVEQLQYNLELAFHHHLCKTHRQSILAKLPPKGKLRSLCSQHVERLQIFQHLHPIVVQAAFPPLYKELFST

Row | SMILES | Ki [1] [nM] | IC50 [2] [nM] | IC50 [3] [nM] | inhibition at 3 µM [4] [%]
1 | CC[C@H]1c2ncc(C(=O)N[C@@H](COC)c3ccc(S(=O)(=O)CC)cc3)cc2CN1C[C@H]1CC[C@@H](C(F)(F)F)OC1 (single isomer, unassigned) [Compound 6] | < 100 | > 1000 |  | 
2 | CC[C@H]1c2ncc(C(=O)N[C@@H](COC)c3ccc(S(=O)(=O)CC)cc3)cc2CN1C[C@@H]1CC[C@@H](C(F)(F)F)OC1 (single isomer, unassigned) [Compound 4] | < 100 | < 100 |  | 
3 | CCS(=O)(=O)c1ccc([C@@H](COC(N)=O)NC(=O)c2cnc3c(c2)CN(C[C@H]2CC[C@@H](C(F)(F)F)CC2)[C@H]3C(C)C)nc1 [Compound 9] | < 100 | > 1000 |  | 
4 | CC[C@H]1c2ncc(C(=O)N[C@@H](COC(N)=O)c3ccc(S(=O)(=O)CC)cc3)cc2CN1C[C@H]1CC[C@H](C(F)(F)F)CC1 [Compound 2, (R)-2-((S)-7-ethyl-6-((trans-4-(trifluoromethyl)cyclohexyl)methyl)-6,7-dihydro-5H-pyrrolo[3,4-b]pyridine-3-carboxamido)-2-(4-(ethylsulfonyl)phenyl)ethyl carbamate] | […] | […] | […] | 38.8
6 | CCS(=O)(=O)c1ccc(CNC(=O)c2cnc3c(c2)CN(C[C@H]2CC[C@H](C(F)(F)F)CC2)[C@H]3C(C)C)cc1 |  |  |  | 57
7 | CCS(=O)(=O)c1ccc(CNC(=O)c2cnc3c(c2)CN(C[C@H]2CC[C@H](C(F)(F)F)CC2)[C@H]3C(C)C)nc1 |  |  |  | 45.4
8 | CCS(=O)(=O)c1ccc([C@H](COC)NC(=O)c2cnc3c(c2)CN(C[C@H]2CC[C@@H](C(F)(F)F)CC2)[C@H]3C(C)C)cc1 [Compound 8] | < 100 | > 1000 |  | 
9 | CC[C@H]1c2ncc(C(=O)N[C@@H](COC)c3ccc(S(=O)(=O)CC)cc3)cc2CN1C[C@H]1CC[C@H](C(F)(F)F)OC1 (single isomer, unassigned) [Compound 3] | < 100 | < 100 |  | 24.3
10 | CC[C@H]1c2ncc(C(=O)N[C@@H](COC)c3ccc(S(=O)(=O)CC)cc3)cc2CN1C[C@@H]1CC[C@H](C(F)(F)F)OC1 (single isomer, unassigned) [Compound 5] | < 100 | > 1000 |  | 
11 | CC[C@H]1c2ncc(C(=O)N[C@@H](COC)c3ccc(S(=O)(=O)CC)cc3)cc2CN1C[C@H]1CC[C@H](C(F)(F)F)CC1 [Compound 1, (S)-7-ethyl-N—((R)-1-(4-(ethylsulfonyl)phenyl)-2-methoxyethyl)-6-((trans-4-(trifluoromethyl)cyclohexyl)methyl)-6,7-dihydro-5H-pyrrolo[3,4-b]pyridine-3-carboxamide] | < 100 | < 100 | < 100 | 24.3

The next lines start with results.

Row | Ki [1] [nM] | IC50 [2] [nM] | SMILES | IC50 [3] [nM] | inhibition at 3 µM [4] [%]
12 | < 100 | < 100 | CCS(=O)(=O)c1ccc([C@H](COC(N)=O)NC(=O)c2cnc3c(c2)CN(C[C@H]2CC[C@H](C(F)(F)F)CC2)[C@H]3C(C)C)nc1 [Compound 10] |  | 
13 | < 100 | 100 to 1000 | CCS(=O)(=O)c1ccc([C@H](COCC(=O)O)NC(=O)c2cnc3c(c2)CN(C[C@H]2CC[C@H](C(F)(F)F)CC2)[C@H]3C(C)C)cc1 [Compound 14] |  | 
14 | < 100 | < 100 | CCS(=O)(=O)c1ccc([C@H](COC)NC(=O)c2cnc3c(c2)CN(C[C@H]2CC[C@H](C(F)(F)F)CC2)[C@H]3C(C)C)cc1 [Compound 15] |  | 50
15 | < 100 | < 100 | CCS(=O)(=O)c1ccc([C@@H](COC(N)=O)NC(=O)c2cnc3c(c2)CN(C[C@H]2CC[C@H](C(F)(F)F)CC2)[C@H]3C(C)C)cc1 [Compound 12] |  | 38.8
16 | < 100 | > 1000 | CCS(=O)(=O)c1ccc([C@H](COC(N)=O)NC(=O)c2cnc3c(c2)CN(C[C@H]2CC[C@@H](C(F)(F)F)CC2)[C@H]3C(C)C)cc1 [Compound 11] |  | 

Source: patent US9663515B2, “Dihydropyrrolopyridine inhibitors of ROR-gamma” (Vitae Pharmaceuticals, Inc., priority 2014, dated 2017)
